Results on 37 molecules are retold here after PubChem BioAssay AID652 (University of Pittsburgh Molecular Library Screening Center, 2007).

Active and inactive are the calls of the source. No rule for the calls is given here.

The first experiment addresses Gag-Pol polyprotein (Human immunodeficiency virus type 1 group M subtype B (isolate HXB2)) (UniProt P04585). Put plainly: concentration-response of HIV-1 RNase H blockers – biochemical, probe assessment, dose response (AID 652). Particulars: HIV-1 RT RNase H enzymatic assay.
With `C/C=C/CSc1nc2c(c(=O)[nH]c(=O)n2C)n1Cc1ccc(C)cc1`, the IC50 is 11.2 µM. Same read-out and setting: for `O=c1/c(=C/c2ccccn2)sc2nc3ccccc3n12` the value was 14.6 µM. Same read-out and setting: for `COCCn1c(SCCN2CCOCC2)nc2c1c(=O)[nH]c(=O)n2C` the value was > 50 µM (inactive).

The experiment is the same for the next values; noted with them: HIV-1 RT RNase H enzymatic assay, inhibition, at 50 µM, stronger effect = higher value.
As to `CCOc1cc(C2CC(=O)N3CN(C4CCCCC4)CSC3=C2C#N)ccc1O` (stereo not given), the inhibition was 85.6%. Still for that read-out and setting: for `COC(=O)c1cccc(N2C(=O)C(Cl)=C(N3CCOCC3)C2=O)c1` the value was 29.2%.

As to `C=CCn1c(=O)c(C(=O)Nc2nnc(C)s2)c(O)c2ccccc21`, the inhibition came to 84.5%. On the same count and under the same terms, for `C=CCn1c(SCC(=O)NC(=O)NCc2ccco2)nc2sc(C)c(C)c2c1=O` the value was 83.8%.

In the case of `CC(C)CN(C(=O)COC(=O)c1ccc2c(c1)NC(=O)CS2)C1CCS(=O)(=O)C1` (stereo not given), the inhibition came to 55.8%. Still for that read-out and setting: for `CCc1ccccc1N1CSC2=C(C#N)C(c3cc(OC)c(OC)cc3OC)CC(=O)N2C1` (stereo not given) the value was 98.3%. With `Cc1cccc(C(=O)OCC(=O)Nc2ccc(N3CCCCC3)cc2)c1O`, the inhibition was 94.7%. Same read-out and setting: for `O=C(NCCc1ccccc1)c1c(O)c2cccc3c2n(c1=O)CC3` the value was 67.7%; for `COc1cccc(-c2nnc(NC(=O)c3ccc(S(=O)(=O)N(CC(C)C)CC(C)C)cc3)o2)c1`, 84.4%; for `CCOC(=O)c1c(NC(=O)c2ccc(-n3cnnn3)cc2)sc2c1CCCC2`, 88.3%. `COc1cc(-c2nnc3sc(-c4cccnc4)nn23)cc(OC)c1OC`: the inhibition stood at 72.2%. As to `C/C=C/CSc1nc2c(c(=O)[nH]c(=O)n2C)n1Cc1ccc(C)cc1`, the inhibition amounted to 101%. Still for that read-out and setting: for `O=c1/c(=C/c2ccccn2)sc2nc3ccccc3n12` the value was 89.2%; for `CCCCCn1c(SCCCC)nc2c1c(=O)[nH]c(=O)n2C`, 91.1%. Turning to `Cc1cccc(-n2c(N)c(C(=O)N3CCN(C)CC3)sc2=S)c1`, the inhibition worked out at 41.7%. Still for that read-out and setting: for `CCCCCCNC(=O)c1c(N)n(/N=C/c2ccco2)c2nc3ccccc3nc12` the value was 98.3%; for `Cc1ccc(/C=C/C2=Cc3c(sc(NC(=O)CSc4n[nH]c(N)n4)c3C#N)C(C)(C)C2)o1`, 91.1%. Still for that read-out and setting: for `N#Cc1c(NC(=O)c2ccc(Cn3cc(Br)cn3)o2)sc2c1CCCCCC2` the value was 98%; for `COc1ccc(Br)cc1C1CC(=O)N2CN(C)CSC2=C1C#N` (stereo not given), 84.1%; for `COc1ccc2[nH]c(=O)c(CN(C3CCCCC3)C(c3nnnn3Cc3ccco3)C(C)C)cc2c1` (stereo not given), 88.5%. Still for that read-out and setting: for `COc1ccc(-n2c(SCC(=O)N3CCCC3)nc3c([nH]c4ccccc43)c2=O)cc1` the value was 66.7%; for `COCCn1c(SCCN2CCOCC2)nc2c1c(=O)[nH]c(=O)n2C`, 40%; for `CCCCCC#CCC#CCC#CCC#CCCCC(=O)O`, 98%. For `COc1ccc(N2CCN(Cc3cc(=O)oc4cc(-c5ccccc5)c(O)cc34)CC2)cc1`, the inhibition was 96.2%. Turning to `Nc1ccc(-c2nnc(-c3ccc(-c4ccccc4)cc3)o2)cc1`, the inhibition was found to be 101%. The same measure, in the same setting: for `O=c1ccc2cc3c([nH]c4ccc(Br)cc43)oc-2c1O` the value was 88.5%; for `Cc1cccc(NC(=O)Cn2c(C)c(C#N)c3ccccc32)c1C`, 89%; for `CC(Cc1ccc(O)c(O)c1)C(C)Cc1ccc(O)c(O)c1` (stereo not given), 99%. Still for that read-out and setting: for `O=C1CC(c2ccccc2)Cc2nc(N3CCc4ccccc43)ncc21` (stereo not given) the value was 94.6%; for `CC(C)(C)C1=Nn2c(nnc2-c2ccccn2)SC1`, 80.5%. As to `CCN1CCN(c2nc(C)nc3c2sc(=S)n3C)CC1`, the inhibition worked out at 76.3%. Still for that read-out and setting: for `COc1cc(N=c2ssnc2Cl)cc(OC)c1OC` the value was 78.8%. Regarding `CCCCCn1c(=O)c(C(=O)NCc2ccncc2)c(O)c2ccccc21`, the inhibition stood at 96%.

As to `Cc1nn2c(-c3cccc(NC(=O)CSc4nc5ccccc5o4)c3)nnc2c2ccccc12`, the inhibition amounted to 98.2%. The same measure, in the same setting: for `O=C(NCc1ccco1)c1cccnc1-c1nc2ccccc2s1` the value was 93.7%. On the same count and under the same terms, for `O=C(Nc1ccc2nc(-c3ccco3)c(-c3ccco3)nc2c1)N1CCCCCC1` the value was 97%.

`O=C(Nc1nc(-c2ccncc2)cs1)c1ccco1`: the inhibition was found to be 87.1%.
